Common to all, as to format: cell-based
In one assay the test system is DENV-1 strain TC974#666. The experiment in a line: Tetravalent RT-qPCR assay Protocol A, serotype 1. Particulars: Dengue virus, DENV1, 72 h, RT-qPCR serotype 1 TC974#666, Vero cells, day 3. On the procedure: (§1) The antiviral activity of the compounds of the invention was tested against DENV-1 strain TC974#666 (NCPV), DENV-2 strain 16681, DENV-3 strain H87 (NCPV) and DENV-4 strains H241 (NCPV) and EDEN (SG/06K2270DK1/2005; GenBank accession number QG398256) in a RT-qPCR assay. Therefore, Vero cells were infected with either DENV-1, or -2, or -3, or -4 in the presence or absence of test compounds. At day 3 post-infection, the cells were lysed and cell lysates were used to prepare cDNA of both a viral target (the 3′UTR of DENV; table 2) and a cellular reference gene (β-actin, table 2). Subsequently, a duplex real time PCR was performed on a Lightcycler480 instrument. The generated Cp value is inversely proportional to the amount of RNA expression of these targets. Inhibition of DENV replication by a test compound result in a shift of Cp's for the 3′UTR gene. On the other hand, if a test compound is toxic to the cells, a similar effect on β-actin expression will be observed. The comparative ΔΔCp method is used to calculate EC50, which is based on the relative gene expression of the target gene (3′UTR) normalized with the cellular housekeeping gene (β-actin). In addition, CC50 values were determined based on the Cp values acquired for the housekeeping gene β-actin.
(§2) The culture medium consisted of minimal essential medium supplemented with 2% of heat-inactivated fetal calf serum, 0.04% gentamycin (50 mg/mL) and 2 mM of L-glutamine. Vero cells, obtained from ECACC, were suspended in culture medium and 75 μL/well was added in 96-well plates (10000 cells/well), which already contain the antiviral compounds. Typically, these plates contain a 4-fold serial dilution of 9 dilution steps of the test compound at 200 times the final concentration in 100% DMSO (500 nL; final concentration range: 25 μM-0.00038 μM). In addition, each plate contains wells which are assigned as virus controls (containing cells and virus in the absence of compound) and cell controls (containing cells in the absence of virus and compound). Once the cells were added in the plates, the plates were incubated in a fully humidified incubator (37° C., 5% CO2) until the next day. Then, DENV-1 strain TC974#666, DENV-2 strain 16681, DENV-3 strain H87 or DENV-4 strains H241 or EDEN were added. […] In parallel, 25 μL of culture medium was added to the cell controls. Next, the plates were incubated for 3 days in a fully humidified incubator (37° C., 5% CO2). After 3 days, the supernatant was removed from the wells and the cells were washed twice with ice-cold PBS (˜100 μL). The cell pellets within the 96-well plates were stored at −80° C. for at least 1 day. Next, RNA was extracted using the Cells-to-CT™ lysis kit, according to the manufacture's guideline (Applied Biosystems). The cell lysates can be stored at −80° C. or immediately used in the reverse transcription step. In preparation of the reverse transcription step, mix A (table 3A) was prepared and 7.57 μL/well was dispensed in a 96-well plate. After addition of 5 μL of the cell lysates, a five minute denaturation step at 75° C. was performed (table 3B). Afterwards, 7.43 μL of mix B was added (table 3C) and the reverse transcription step was initiated (table 3D) to generate cDNA.
(§3) Finally, a RT-qPCR mix was prepared, mix C (table 4A), dispensed in 96-well LightCycler qPCR plates to which 3 μL of cDNA was added and the qPCR was performed according to the conditions in table 4B on a LightCycler 480. Using the LightCycler software and an in-house LIMS system, dose response curves for each compound were calculated and the half maximal effective concentration (EC50) and the half maximal cytotoxic concentration (CO50) were determined (Tables 6-9).
Background: In qPCR the cycle at which signal appears reflects the starting amount.

In a further assay the test system is DENV-3 strain H87. As to the kind of experiment: Tetravalent RT-qPCR assay Protocol A, serotype 3. Particulars: Dengue virus, DENV3, 72 h, RT-qPCR serotype 3 H87, Vero cells, day 3. As to the method: as §1, §2, §3
In a further assay the test system is DENV-4 strain H241. As to the kind of experiment: Tetravalent RT-qPCR assay Protocol A, serotype 4 H241. Particulars: Dengue virus, DENV4, 72 h, RT-qPCR serotype 4 H241, Vero cells, day 3. As to the method:
as §1, §2, §3

A further assay concerns DENV-4 strain EDEN. The experiment in a line: Tetravalent RT-qPCR assay Protocol A, serotype 4 EDEN. Conditions: Dengue virus, DENV4, 72 h, RT-qPCR serotype 4 EDEN, Vero cells, day 3. As to the method: as §1, §2, §3
The next assay deals with DENV-2 NGC-Tongalike. As to the kind of experiment: Tetravalent RT-qPCR assay Protocol B, serotype 2. Particulars: Dengue virus, DENV2, Vero, 96 h. On the procedure: (§4) Vero cells (4×10^4) were seeded in 96-well plates. […] Following a 2 hour incubation period, the cell monolayer was washed 3 times with assay medium to remove residual, non-adsorbed virus and cultures were further incubated for either 4 days (DENV-2 NGC-Tongalike) or 7 days (DENV-1 Djibouti strain D1/H/IMTSSA/98/606, DENV-3 strain H87 prototype, DENV-4 strain H241′) in the presence of the inhibitor. Supernatant was harvested and viral RNA load was determined by real-time quantitative RT-PCR. The 50% effective concentration (EC50), which is defined as the compound concentration that is required to inhibit viral RNA replication by 50%, was determined using logarithmic interpolation (Tables 7 and 8). RNA was isolated from 100 μL supernatant with the NucleoSpin 96 Virus kit (Filter Service, Duren, Germany) as described by the manufacturer. The sequences of the TaqMan primers (DENV-For, DENV-Rev; Table 5) and TaqMan probes (DENV-Probe Table 5) were selected from non-structural gene 3 (NS3) or NS5, of the respective flaviviruses using Primer Express software (version 2.0; Applied Biosystems, Lennik, Belgium). The TaqMan probe was fluorescently labelled with 6-carboxyfluorescein (FAM) at the 5′ end as the reporter dye, and with minor groove binder (MGB) at the 3′ end as the quencher (Table 5). One-step, quantitative RT-PCR was performed in a total volume of 25 μL, containing 13.9375 μL H2O, 6.25 μL master mix (Eurogentec, Seraing, Belgium), 0.375 μL forward primer, 0.375 μL reverse primer, 1 μL probe, 0.0625 μL reverse transcriptase (Eurogentec) and 3 μL sample. RT-PCR was performed using the ABI 7500 Fast Real-Time PCR System (Applied Biosystems, Branchburg, N.J., USA) using the following conditions: 30 min at 48° C. and 10 min at 95° C., followed by 40 cycles of 15 s at 95° C. and 1 min at 60° C. The data was analyzed using the ABI PRISM 7500 SDS software (version 1.3.1; Applied Biosystems). For absolute quantification, standard curves were generated using 10-fold dilutions of template preparations of known concentrations.

Assay [1] concerns DENV-3 strain H87 prototype. As to the kind of experiment: Tetravalent RT-qPCR assay Protocol B, serotype 3. Conditions: Dengue virus, DENV3, 168 h, RT-qPCR serotype 3 H87, Vero cells, 7 days. On the procedure:
as §4

This note sets out measurements from patent publication US10206902B2, “Mono- or di-substituted indoles as dengue viral replication inhibitors” (priority 2014, dated 2019).

Broadly, the EC50 is the midpoint of the concentration-response curve. Higher therefore signals lower potency in that assay.

Where only a bound is given, the exact number is not on record here.

Regarding `COc1cc(NC(C(=O)c2c[nH]c3cc(F)c(F)cc23)c2ccc(F)cc2OC)cc(OCCO)c1` (single isomer, unassigned) [Compound 10B, 1-(5,6-difluoro-1H-indol-3-yl)-2-(4-fluoro-2-methoxy-phenyl)-2-((3-(2-hydroxyethoxy)-5-methoxyphenyl)amino)ethanone], the EC50 in the assay with DENV-1 strain TC974#666 is 16 nM; in the assay on DENV-3 strain H87 it was 130 nM; with DENV-4 strain H241, 390 nM; with DENV-4 strain EDEN it was 20 nM; in the assay on DENV-2 NGC-Tongalike, 1.6 nM; in assay [1] it was less than 22 nM.

`COc1cc(NC(C(=O)c2c[nH]c3c(C)c(OC)ccc23)c2ccc(F)cc2OC)cc(OCCO)c1` (single isomer, unassigned) [Compound 11A, 2-(4-fluoro-2-methoxyphenyl)-2-((3-(2-hydroxyethoxy)-5-methoxyphenyl)amino)-1-(6-methoxy-7-methyl-1H-indol-3-yl)ethanone]: the EC50 with DENV-1 strain TC974#666 came to 20 nM; in the assay on DENV-3 strain H87, 85 nM; in the assay with DENV-4 strain H241 it was 350 nM; in the assay on DENV-4 strain EDEN, 15 nM; in the assay with DENV-2 NGC-Tongalike, 0.68 nM; in assay [1], 40 nM.

For the compound `COc1cc(NC(C(=O)c2c[nH]c3c(F)cc(C)cc23)c2ccc(F)cc2OC)cc(OCCO)c1` (single isomer, unassigned) [Compound 12B, 2-(4-fluoro-2-methoxyphenyl)-1-(7-fluoro-5-methyl-1H-indol-3-yl)-2-((3-(2-hydroxyethoxy)-5-methoxyphenyl)amino)ethanone], the EC50 was 20 nM with DENV-1 strain TC974#666; 270 nM in the assay on DENV-3 strain H87; 290 nM in the assay on DENV-4 strain H241; 17 nM with DENV-4 strain EDEN; 1.7 nM in the assay with DENV-2 NGC-Tongalike; 77 nM in assay [1].
